Assay results taken from patent US20120258960A1, “NOVEL MULTIFUNCTIONAL PEPTIDASE INHIBITORS, ESPECIALLY FOR MEDICAL USE” (IMTM GMBH, priority 2009, published 2012).

Experiments:
Sprague-Dawley rats = assay: Infarct volume after transient focal cerebral ischemia (endothelin 1-induced middle cerebral artery occlusion, eMCAO); format: in vivo; conditions: cortex, 7 days after eMCAO, % of vehicle control (100%), mean ± S.E.M.; 2 μl of 10 mmol/l intracerebroventricularly during ischemia, 6 and 24 h after reperfusion
Description: Studies were performed on male Sprague-Dawley rats (250 to 280 g) obtained from Harlan Winkelmann (Borchen, Germany). The animals were maintained under constant environmental conditions with ambient temperature of 21±2° C. and relative humidity of 40%. They were housed with a 12-h light-dark cycle and given food and water ad libitum.
For stock solution of the compounds, a compound determined for use in the study (25 mmol) was dissolved in dimethyl sulfoxide (DMSO, SigmaAldrich, Germany) and diluted with 0.1 M phosphate buffer saline (PBS, pH 7.4) to a final volume of 10 mmol/l. 2 μl of a 10 mmol/l test compound PBS/DMSO solution was administered intra-cerebroventricularly at different time points after the induction of transient focal cerebral ischemia. If not otherwise stated, all other chemicals were of highest available purity.
The procedure for the induction of transient focal cerebral ischemia by occlusion of the middle cerebral artery via microinjection of endothelin 1 adjacent to the middle cerebral artery was modified from that published previously by Sharkey and Butcher, 1995. Anesthesia was induced with halothane in a mixture of nitrous oxide/oxygen (70:30, v/v) and maintained with 2 to 3% halothane during the following procedures. Rats were placed in a Kopf stereotaxic frame and further anesthetized via nose cone. For the induction of focal cerebral ischemia, a burr hole was drilled (1 mm diameter) into the skull (coordinates: anterior 0.90 mm from bregma, lateral 5.2 mm to satura sagittalis), and the dura was carefully opened. A 29-gauge cannula was lowered 7.5 mm below the dura according to the rat brain atlas of Paxinos and Watson (31). To induce occlusion of the middle cerebral artery, rats received an injection of […] of endothelin 1 (ED-1, Sigma-Aldrich) in 3 μl of 0.1 M phosphate-buffered saline, pH 7.4, over a time period of 5 min. After a further 5 min, the cannula was slowly withdrawn.
For intracerebroventricular application of the compounds selected, a second burr hole was drilled into the skull (coordinates: posterior 0.80 mm from bregma, lateral 1.5 mm to satura sagittalis), and a second 29-gauge cannula was lowered 4.5 mm below the dura. Intracerebroventricular applications of selected compounds (2 μl of a 10 mmol/l PBS/DMSO solution, pH 7.4) were performed during ischemia, 6 and 24 h after reperfusion.
After a survival time of 7 days after endothelin-induced middle cerebral artery occusion (eMCAO), animals were anesthetized by an intraperitonial injection of pentobarbital and perfusion-fixed transcardially with saline, followed by 4% paraformaldehyde in 0.1 M phosphate buffer saline, pH 7.4. Brains were then removed carefully, post-fixed in the same fixative for 2 h, and placed in a rodent brain matrix (rat, Activational Systems Inc., Scientific Instrumentation). 1-mm coronal brain slices were cut with a razor blade at 14 predetermined anterior-posterior levels. After cryoprotection in 30% sucrose, slices were rapidly frozen in isopentane and stored at −80° C. Four to five cryostat sections (30 μm) from each brain slice were cut in a cryo microtome and stained with toluidine blue.
The extent of cortical damage following ischemic injury was documented with microphotographic images from the Nissl-stained slices showing the anterior-posterior level according to the brain atlas of Paxinos and Watson (31). The volume of cortical infarct was determined by an operator blinded to the group composition.
The extent of the infarct area at each level was calculated by integrating of the area of damage at each stereotactic level and the distances between the various levels. Using a light microscope (Nikon, Eclipse TE 3000) equipped with a 4× objective, the image analysis was performed with a computer-assisted image analysis system (Lucia software, Version 4.2.1).
The data were statistically analyzed by non-paired Student's t tests. […]

[1] = system: human peripheral blood mononuclear cells; assay: Inhibition of proliferation of PHA-stimulated mononuclear cells (BrdU incorporation); format: cell-based; conditions: PBMC, 1 μg/ml Phytohemagglutinine, 48 hours, test compounds 0.1-250 μM, read-out: MNC IC50
Description: (§1) Peripheral blood mononuclear cells (PBMC) from healthy human volunteers were freshly isolated by density gradient centrifugation. T lymphocytes (T cells, Tc) were isolated from PBMC fractions via nylon wool adherence. Cells were cultured in standard cell culture media and stimulated by addition of 1 μg/ml Phytohemagglutinine for 48 hours in 96 well flat-bottom microtitre plates. Test compounds were added at concentration ranges from 0.1-250 μM over the total assay period.
DNA synthesis of proliferating PBMC was assessed by incorporation of nucleotide analogue bromdesoxyuridine (BrdU) and subsequent detection of optical density (OD) at 450 nm.
(§2) Data output was based on raw data and calculation of relative proliferation response in relation to PHA-activated T cells in the absence of test compound (100% control).
(§3) The […] value of proliferation suppression was assessed by graphical evaluation.

T lymphocytes = assay: Inhibition of proliferation of PHA-stimulated T lymphocytes (tritium thymidine incorporation); format: cell-based; conditions: Homo sapiens, T-lymphocyte, 1 μg/ml Phytohemagglutinine, 48 hours, test compounds 0.1-250 μM, read-out: T cells IC50
Description: as §1
DNA synthesis of proliferating T cells was determined by incorporation of radio labelled tritium thymidine and subsequent radio detection.
as §2, §3

CC(C)(NC(=O)CC(N)Cc1ccccc1)C(C)(C)NC(=O)C(O)C(N)Cc1ccccc1 (stereo not drawn) [drawing 286]
Infarct Volume (%) (Sprague-Dawley rats): 70.7 ± 6.1 %

CC(C)(CNCC(N)Cc1cc(F)ccc1F)CNC(=O)C(O)C(N)Cc1ccccc1 (stereo not drawn) [drawing 292]
Infarct Volume (%) (Sprague-Dawley rats): 59.9 ± 16.1 %

CCCCCCCCCCCCCC(=O)NC(CC(=O)NCC(C)(C)CNC(=O)C(O)C(Cc1ccccc1)NC(=O)CCCCCCCCCCCCC)Cc1cc(F)ccc1F (stereo not drawn) [drawing 289]
Infarct Volume (%) (Sprague-Dawley rats): 60.7 ± 17.1 %

CCCCCCCCCCCCCCCC(=O)NC(CC(=O)NCC(C)(C)CNC(=O)C(O)C(Cc1ccccc1)NC(=O)CCCCCCCCCCCCCCC)Cc1cc(F)ccc1F (stereo not drawn) [drawing 290]
Infarct Volume (%) (Sprague-Dawley rats): 75.6 ± 16.6%

NC(CC(=O)NC1CCCC(NC(=O)C(O)C(N)Cc2ccccc2)C1)Cc1cc(F)ccc1F (stereo not drawn) [drawing 291]
Infarct Volume (%) (Sprague-Dawley rats): 64.2 ± 14.6 %

CC(C)(CNC(=O)CC(N)Cc1cc(F)ccc1F)CNC(=O)C1OC(=O)NC1Cc1ccc(-c2ccccc2)cc1 (stereo not drawn) [drawing 275]
IC50 [1]: 200 µM
IC50 (T lymphocytes): 139 µM

CCCCCCCCCCCCCCCC(=O)OC(C(=O)NCC(C)(C)CNC(=O)CC(N)Cc1cc(F)ccc1F)C(N)Cc1ccccc1 (stereo not drawn) [drawing 288]
Infarct Volume (%) (Sprague-Dawley rats): 58.6 ± 19.7 %

NC(CC(=O)NCCCCNC(=O)C(O)C(N)Cc1ccc(Br)cc1)Cc1cc(F)ccc1F (stereo not drawn) [drawing 267]
IC50 [1]: 200 µM
IC50 (T lymphocytes): 58.1 µM

CC(C(=O)NCC(C)(C)CNC(=O)C(O)C(N)Cc1ccccc1)C(N)Cc1cc(F)ccc1F (stereo not drawn) [drawing 266]
IC50 [1]: 41.6 µM
IC50 (T lymphocytes): 38.9 µM

NC(CC(=O)N1CCN(C(=O)CC(O)C(N)Cc2ccccc2)CC1)Cc1ccccc1 (stereo not drawn) [drawing 222]
IC50 [1]: 135 µM
IC50 (T lymphocytes): 157 µM

NC(CC(=O)NCCCCNC(=O)C(O)C(N)Cc1ccccc1)C(=O)N1CCSC1 (stereo not drawn) [drawing 248]
IC50 [1]: 28.3 µM
IC50 (T lymphocytes): 35.2 µM

CCCCCCCC(=O)OC(C(=O)NCCCCNC(=O)CC(N)Cc1cc(F)ccc1F)C(N)Cc1ccccc1 (stereo not drawn) [drawing 256]
IC50 [1]: 10.6 µM
IC50 (T lymphocytes): 19 µM

CC(C)(NC(=O)CC(N)Cc1ccccc1)C(C)(C)NC(=O)C(O)C(N)Cc1ccccc1 (stereo not drawn) [drawing 226]
IC50 [1]: 46.9 µM
IC50 (T lymphocytes): 16.1 µM

NC(CC(=O)NCCCCNC(=O)C(O)C(N)Cc1ccccc1)Cc1cc(F)ccc1F (stereo not drawn) [drawing 287]
Infarct Volume (%) (Sprague-Dawley rats): 73.5 ± 5.7 %

CC(C)(CNC(=O)CC(N)Cc1cc(F)ccc1F)CNC(=O)C(OC(=O)CCCc1ccccc1)C(N)Cc1ccccc1 (stereo not drawn) [drawing 255]
IC50 [1]: 2.5 µM
IC50 (T lymphocytes): 3 µM

CCCCCCCCCCCCCCCC(=O)OC(C(=O)NCC(C)(C)CNC(=O)CC(N)Cc1cc(F)ccc1F)C(N)Cc1ccccc1 (stereo not drawn) [drawing 249]
IC50 [1]: 35.8 µM
IC50 (T lymphocytes): 34.4 µM

NC(CC(=O)NCC1(CNC(=O)C(O)C(N)Cc2ccccc2)CCCCC1)Cc1cc(F)ccc1F (stereo not drawn) [drawing 273]
IC50 [1]: 7.4 µM
IC50 (T lymphocytes): 7 µM

NC(CC(=O)NCCNC(=O)C(O)C(N)Cc1ccccc1)Cc1ccc2ccccc2c1 (stereo not drawn) [drawing 219]
IC50 [1]: 30.4 µM
IC50 (T lymphocytes): 34 µM

NC(CNC(=O)c1cccc(NC(=O)C(O)C(N)Cc2ccc(-c3ccsc3)cc2)c1)Cc1cc(F)ccc1F (stereo not drawn) [drawing 284]
IC50 [1]: 4.7 µM
IC50 (T lymphocytes): 3.9 µM

CCCCCCCCCCCC(=O)OC(C(=O)NCC(C)(C)CNC(=O)CC(N)Cc1cc(F)ccc1F)C(N)Cc1ccccc1 (stereo not drawn) [drawing 253]
IC50 [1]: 1.7 µM
IC50 (T lymphocytes): 2 µM

CC(C)(CNC(=O)CC(N)Cc1cc(F)ccc1F)CNC(=O)C(O)C(N)Cc1ccccc1 (stereo not drawn) [drawing 232]
IC50 [1]: 200 µM
IC50 (T lymphocytes): ≥ 200 µM

CCCCCCCCCCCCCCCCNC(CC(=O)NCC(C)(C)CNC(=O)C(O)C(Cc1ccccc1)NCCCCCCCCCCCCCCCC)Cc1cc(F)ccc1F (stereo not drawn) [drawing 272]
IC50 [1]: 10 µM
IC50 (T lymphocytes): 11 µM

NC(CC(=O)NCCCNC(=O)C(O)C(N)Cc1ccccc1)Cc1cc(F)ccc1F (stereo not drawn) [drawing 237]
IC50 [1]: 122 µM
IC50 (T lymphocytes): 70 µM

CC(C)(CNC(=O)CC(N)Cc1ccccc1)CNC(=O)C(O)C(N)Cc1ccccc1 (stereo not drawn) [drawing 227]
IC50 [1]: 200 µM
IC50 (T lymphocytes): ≥ 200 µM

CCCCCCCCCCCCCCCC(=O)NC(CC(=O)NCC(C)(C)CNC(=O)C(O)C(Cc1ccccc1)NC(=O)CCCCCCCCCCCCCCC)Cc1cc(F)ccc1F (stereo not drawn) [drawing 268]
IC50 [1]: 200 µM
IC50 (T lymphocytes): 97.5 µM

CC(C)(CNC(=O)CC(N)Cc1cc(F)ccc1F)CNC(=O)C(O)C(N)Cc1ccc(-c2cccnc2)cc1 (stereo not drawn) [drawing 282]
IC50 [1]: 31.4 µM
IC50 (T lymphocytes): 64.9 µM

CC(C)(CNC(=O)CC(CN)Cc1ccccc1)CNC(=O)C(O)C(N)Cc1ccccc1 (stereo not drawn) [drawing 240]
IC50 [1]: 64.4 µM
IC50 (T lymphocytes): 60.7 µM

CC(C)(CNC(=O)CC(N)Cc1cc(F)ccc1F)CNC(=O)C(O)C(N)Cc1ccc(-c2cncnc2)cc1 (stereo not drawn) [drawing 283]
IC50 [1]: 70 µM
IC50 (T lymphocytes): 96.1 µM

CCCCCCCCCCCCCCCC(=O)OC(C(=O)NCCCCNC(=O)CC(N)Cc1cc(F)ccc1F)C(N)Cc1ccccc1 (stereo not drawn) [drawing 259]
IC50 [1]: 2.1 µM
IC50 (T lymphocytes): 4.1 µM

NC(CC(=O)NCC1(CNC(=O)C(O)C(N)Cc2ccccc2)CCC1)Cc1cc(F)ccc1F (stereo not drawn) [drawing 263]
IC50 [1]: 29.9 µM
IC50 (T lymphocytes): 19.2 µM

CC(C)(CNC(=O)CC(N)Cc1cc(F)ccc1F)CNC(=O)C(O)C(N)Cc1ccc(-c2ccccc2)cc1 (stereo not drawn) [drawing 281]
IC50 [1]: 119 µM
IC50 (T lymphocytes): 98.5 µM

C[C@@H]1CN(C(=O)CC(O)C(N)Cc2ccccc2)C[C@H](C)N1C(=O)CC(N)Cc1ccccc1 (stereo partly drawn) [drawing 225]
IC50 [1]: 84.5 µM
IC50 (T lymphocytes): 147 µM
